In patent US20050239656A1, “Pyridine compounds or salts thereof and herbicides containing the same” (priority 2002, published 2005):

Legend:
japanese bulrush = experiment: Test Example 3: paddy pot test, application under submerged conditions; format: in vivo, Scirpus juncoides; conditions: submerged application at 0.5 leaf stage, visually observed 14 days after application, 0 = non-treated, 100 = complete kill
Outline: (§1)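 Visual growth-control rating (0 = untreated, 100 = complete kill) 14 days after treatment. The formulated compound, as a diluted wettable powder or emulsifiable concentrate, went into 3–4 cm flood water at a predetermined active-ingredient dose once the weeds reached 0.5 leaf stage (wapato: primary leaf stage).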

green foxtail = experiment: Test Example 2: soil surface treatment, upland pot test; format: in vivo, Setaria viridis L.; conditions: active ingredient 500 g/ha, observed 20th to 28th day
From the text: (§2) Upland field soil was put into a 1/170,000 ha pot, and seed of various plants (barnyardgrass, crabgrass, green foxtail, redroot pigweed, prickly sida, velvetleaf, rice, wheat, corn, soybean) were sown. On the 1st day after the sowing, a wettable powder or emulsifiable concentrate having the compound of the present invention formulated in accordance with a usual formulation method, was weighed so that the active ingredient would be a predetermined amount, and diluted with water in an amount of 1,500 L/ha. The herbicide thus adjusted was applied by a small size sprayer for soil surface treatment. On the 20th to 28th days after the application of the herbicide, the growth of the respective plants was visually observed, and the herbicidal effects were evaluated by the growth controlling degrees (%) ranging from 0 (equivalent to the non-treated plot) to 100 (complete kill), whereby the results shown in Table 4, were obtained.

velvetleaf = experiment: as above; format: in vivo, Abutilon theophrasti MEDIC.; conditions: active ingredient 500 g/ha, observed 20th to 28th day
From the text: as §2

prickly sida = experiment: as above; format: in vivo, Sida spinosa L.; conditions: active ingredient 500 g/ha, observed 20th to 28th day
From the text: as §2

barnyardgrass [1] = experiment: as above; format: in vivo, Echinochloa crus-galli L.; conditions: active ingredient 500 g/ha, observed 20th to 28th day
From the text: as §2

japanese ribbon wapato = experiment: Test Example 3: paddy pot test, application under submerged conditions; format: in vivo, Sagittaria pygniaea; conditions: submerged application at primary leaf stage, visually observed 14 days after application, 0 = non-treated, 100 = complete kill
Outline: as §1

soybean = experiment: Test Example 2: soil surface treatment, upland pot test; format: in vivo, Glycine max Merr.; conditions: active ingredient 500 g/ha, observed 20th to 28th day
From the text: as §2

redroot pigweed = experiment: as above; format: in vivo, Amaranthus retroflexus L.; conditions: active ingredient 500 g/ha, observed 20th to 28th day
From the text: as §2

rice = experiment: as above; format: in vivo, Oryza sativa L.; conditions: active ingredient 500 g/ha, observed 20th to 28th day
From the text: as §2

corn = experiment: as above; format: in vivo, Zea mays L.; conditions: active ingredient 500 g/ha, observed 20th to 28th day
From the text: as §2

barnyardgrass [2] = experiment: Test Example 3: paddy pot test, application under submerged conditions; format: in vivo, Echinochloa crus-galli L.; conditions: submerged application at 0.5 leaf stage, visually observed 14 days after application, 0 = non-treated, 100 = complete kill
Outline: as §1

crabgrass = experiment: Test Example 2: soil surface treatment, upland pot test; format: in vivo, Digitaria sanguinalis L.; conditions: active ingredient 500 g/ha, observed 20th to 28th day
From the text: as §2

rice (var. Nihonbare) = experiment: Test Example 3: paddy pot test, transplanted rice; format: in vivo, Oryza sativa L.; conditions: applied 4th day after transplantation, visually observed 21st day after application, 0 = non-treated, 100 = complete kill
Outline: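 Rice (var. Nihonbare) at 2 leaf stage transplanted 3 cm deep into puddled paddy soil under 3–4 cm flooding; on day 4 after transplanting, diluted wettable powder or emulsifiable concentrate applied by pipette under submerged conditions at a set active-ingredient dose. Growth scored visually 21 days after application, 0 (untreated) to 100 (complete kill) %.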

SMILES | Growth controlling degree (%) Japanese bulrush (japanese bulrush; active ingredient 250 g/ha) [%] | Growth controlling degree (%) Green foxtail (green foxtail) [%] | Growth controlling degree (%) Velvetleaf (velvetleaf) [%] | Growth controlling degree (%) Prickly sida (prickly sida) [%] | Growth controlling degree (%) Barnyardgrass (barnyardgrass [1]) [%] | Growth controlling degree (%) Japanese ribbon wapato (japanese ribbon wapato; active ingredient 250 g/ha) [%] | Growth controlling degree (%) Soyabean (soybean) [%] | Growth controlling degree (%) Redroot pigweed (redroot pigweed) [%] | Growth controlling degree (%) Rice (rice) [%] | Growth controlling degree (%) Corn (corn) [%] | Growth controlling degree (%) Barnyardgrass (barnyardgrass [2]; active ingredient 250 g/ha) [%] | Growth controlling degree (%) Crabgrass (crabgrass) [%] | Growth controlling degree (%) Rice (rice (var. Nihonbare); active ingredient 250 g/ha) [%] | Growth controlling degree (%) Japanese bulrush (japanese bulrush; active ingredient 500 g/ha) [%] | Growth controlling degree (%) Japanese ribbon wapato (japanese ribbon wapato; active ingredient 500 g/ha) [%] | Growth controlling degree (%) Barnyardgrass (barnyardgrass [2]; active ingredient 500 g/ha) [%] | Growth controlling degree (%) Rice (rice (var. Nihonbare); active ingredient 500 g/ha) [%]
Cc1ccc(CC(=O)N(C)C(c2cnccc2C(F)(F)F)C(C)C)cc1 (stereo not drawn) [I-94] | 98 | 100 | 80 | 100 | 100 | 90 | 0 | 98 | 10 | 10 | 100 | 100 | 0 | – | – | – | –
CCc1ccc(CC(=O)N(C)C(c2cnccc2C(F)(F)F)C(C)C)cc1 (stereo not drawn) [I-95] | 98 | 90 | 30 | 80 | 95 | 20 | 30 | 60 | 10 | 10 | 100 | 98 | 0 | – | – | – | –
CC(C)C(c1cnccc1C(F)(F)F)N(C)C(=O)CCc1ccccc1 (stereo not drawn) [I-169] | 50 | 100 | 20 | 90 | 100 | 0 | 30 | 70 | 40 | 40 | 100 | 98 | 10 | – | – | – | –
CC(C)C(c1cnccc1C(F)(F)F)N(C)C(=O)Cc1ccsc1 (stereo not drawn) [I-170] | 100 | 100 | 30 | 95 | 100 | 70 | 35 | 30 | 30 | 50 | 100 | 98 | 0 | – | – | – | –
CC(C)C(c1cnccc1C(F)(F)F)N(C)C(=O)C=Cc1ccc(F)cc1 (stereo not drawn) [I-172] | 98 | 95 | 10 | 80 | 40 | 95 | 0 | 60 | 20 | 10 | 100 | 98 | 0 | – | – | – | –
CC=CC(=O)N(C)C(c1cnccc1C(F)(F)F)C(C)C (stereo not drawn) [I-180] | – | 100 | 50 | 80 | 100 | – | 10 | 80 | 50 | 10 | – | 100 | – | 100 | 60 | 98 | 30
